Results reported in PubChem BioAssay AID816 (SRMLSC, 2007).
Calls of active or inactive are those of the source. The rule behind the calls is not given here.

Test system: S. cerevisiae GAL1 promoter reporter activation counterscreen
Test: yeast Gal1p promoter activation – S. cerevisiae, artefact control for yeast lifespan extension project (AID 816);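 note: yeast growth read after 24 h of incubation with compounds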

Structure (SMILES) | EC50
CCCCSc1nc(O)c(C2OC(=O)c3c2ccc(OC)c3OC)c(=O)n1C (stereo unspecified) | > 40 µM (inactive)
C=C(C(=O)c1ccccc1)C(CC(=O)c1ccccc1)c1ccccc1 (stereo unspecified) | > 40 µM (inactive)
COc1ccc(CN2C(=O)/C(=C/c3ccncc3)SC2=S)cc1 | > 40 µM (inactive)
CCOC(=O)CSC1=NC(=O)/C(=C/c2ccc(OC)cc2)S1 | > 40 µM (inactive)
CN1CCC2(CC1)C(C#N)=C(N)NC(S)=C2C#N | > 40 µM (inactive)
Cc1oc2c(c(=O)c1C)C(=O)CC(c1ccccc1)C2 (stereo unspecified) | > 40 µM (inactive)
CC(=C1C(=O)c2ccccc2C1=O)N1CCN(c2ccccn2)CC1 | > 40 µM (inactive)
COc1ccc(OC)c(C2C(C(C)=O)=C(O)C(=O)N2Cc2cccnc2)c1 (stereo unspecified) | > 40 µM (inactive)
Cc1ccc(Oc2nc3ccccc3n3c(C)nnc23)c(C)c1 | > 40 µM (inactive)
CCCCn1c(=O)c(C(=O)Nc2cnccn2)c(O)c2ccccc21 | > 40 µM (inactive)
Cn1c(=O)c(=O)n(C)c2cc(S(=O)(=O)N3CCN(Cc4ccccc4)CC3)ccc21 | > 40 µM (inactive)
CC1=NN(Cc2ccccc2)C(=O)C1C(c1ccccc1)C(C#N)C#N (stereo unspecified) | > 40 µM (inactive)
COC(=O)CC1=NN(c2ccccc2)C(=O)/C1=C\c1ccc(OC)cc1 | > 40 µM (inactive)
CCCc1nc2c(c(=O)c3ccccc3n2C)c(=O)n1C1CCCCCC1 | > 40 µM (inactive)
COc1ccc(CN2CCN(C(=O)COc3cccc(C)c3)CC2)c(OC)c1 | > 40 µM (inactive)
Cc1cc(C)n2cc(CSc3nnc(N)s3)nc2n1 | > 40 µM (inactive)
Cc1ccc(CNc2nc3ccccc3s2)s1 | > 40 µM (inactive)
O=c1c2ccccc2sn1-c1ccccc1 | > 40 µM (inactive)
Cc1nc2ccccc2n1-c1ccccc1 | > 40 µM (inactive)
CN(C)/C=C(/C(=O)c1ccc(Cl)cc1Cl)S(=O)(=O)c1ccccc1 | > 40 µM (inactive)
CCCn1c(C)cc(C(=O)COc2ncnc3sccc23)c1C | > 40 µM (inactive)
O=C(NC(=S)NNS(=O)(=O)c1ccccc1)c1ccc([N+](=O)[O-])cc1 | > 40 µM (inactive)
CCCCCCCC(=O)N/N=C(/C)c1c(O)cc(C)oc1=O | > 40 µM (inactive)
Cc1ccsc1C(=O)Nc1nnc(-c2ccco2)o1 | > 40 µM (inactive)
COCCOC(=O)/C(=C/c1ccc(OC(=O)c2ccccc2)cc1)C(C)=O | > 40 µM (inactive)
Cc1ccc(-c2nc3ccc(Cl)cc3n2OC(=O)N(C)C)cc1 | > 40 µM (inactive)

Structure (SMILES) | EC50
O=c1[nH]c2ccccc2nc1C(Cl)c1ccccc1 (stereo unspecified) | > 40 µM (inactive)
O=C(Nc1ccc(Br)cn1)c1cccc(-c2cc3ccccc3oc2=O)c1 | > 40 µM (inactive)
COC(=O)C1=C(C(=O)OC)SC(=C2C(=S)C(C)(C)N(C(=O)C(C)C)c3ccccc32)S1 | > 40 µM (inactive)
CCOC(=O)C1C(=O)C(C(C)=O)C(=O)CC1CC(C)SCC (stereo unspecified) | > 40 µM (inactive)
CC(=O)Oc1oc(-c2ccccc2)nc1C=Nc1ccccc1 | > 40 µM (inactive)
CCc1ccc2c(c1)CCCN2C(=O)c1ccccc1C(=O)O | > 40 µM (inactive)
Cc1cc(C(=O)CN2C(=O)NC(C)(CC(C)C)C2=O)c(C)n1-c1ccc2c(c1)OCO2 (stereo unspecified) | > 40 µM (inactive)
COc1ccc(/C=C(/C(=O)c2ccc(Cl)cc2Cl)n2cncn2)cc1 | > 40 µM (inactive)
Cc1ccccc1OC(=O)n1c(=S)oc2cc(Cl)ccc21 | > 40 µM (inactive)
Cc1ccc(-c2ccc(/C=C3\C(=O)ON=C3c3ccccc3)o2)c([N+](=O)[O-])c1 | > 40 µM (inactive)
Cc1ccc(/C(O)=C2\C(=O)C(=O)N(c3cc(C)on3)C2c2cccc(Cl)c2)cc1 (stereo unspecified) | > 40 µM (inactive)
CC(=C1C(=O)c2ccccc2C1=O)N1CCN(C/C=C/c2ccccc2)CC1 | > 40 µM (inactive)
Cc1ccc(C)c(N2CCN(S(=O)(=O)c3c(C)noc3/C=C/N(C)C)CC2)c1 | > 40 µM (inactive)
CCCCOC(=O)n1c(=O)oc2cc(S(=O)(=O)N3CCCCC3)ccc21 | > 40 µM (inactive)
CC(C)=C1C(=O)NN(c2ccc(C)c(Cl)c2)C1=O | > 40 µM (inactive)
Cc1cc2c(c(=O)n1CCc1ccccc1)C(c1ccco1)C(C#N)=C(N)O2 (stereo unspecified) | > 40 µM (inactive)
C=CCn1c(C)cc(C(=O)CSc2nc3ccccc3c(=O)[nH]2)c1C | > 40 µM (inactive)
O=[N+]([O-])c1cc2oc3c(c2c(C=NCc2ccccc2)c1O)CCCC3 | > 40 µM (inactive)
Cc1ccc(C(=O)NNC(=S)NC(=O)c2ccc(Cl)cc2)cc1 | > 40 µM (inactive)
CN(C)c1ccc(S(=O)(=O)c2ccc(Cl)cc2)cc1 | > 40 µM (inactive)
O=C(c1ccccc1)C(CN1CCCC1)c1ccccc1 (stereo unspecified) | > 40 µM (inactive)
O=C(CCl)c1ccc(Cc2ncc(C(F)(F)F)cc2Cl)s1 | > 40 µM (inactive)
CCOC(=O)Cc1csc(NC(=O)c2c(O)c3ccccc3n(CC(C)C)c2=O)n1 | > 40 µM (inactive)
O=C(NCc1ccc(Cl)cc1)c1ccccc1CCc1ccccc1 | > 40 µM (inactive)
CCC(=O)N1CCN(CCN=CC2=C(O)CC(c3cccs3)CC2=O)CC1 (stereo unspecified) | > 40 µM (inactive)
Cc1c(NC(=O)C(=O)/C=C(/O)c2ccccc2)c(=O)n(-c2ccccc2)n1C | > 40 µM (inactive)

Structure (SMILES) | EC50
O=C(COc1ccc2ccccc2c1)Nc1cccc(C(=O)Nc2ccccc2C(=O)O)c1 | > 40 µM (inactive)
CN1C(=O)C(C(=O)Nc2ccccc2F)c2ccccc21 (stereo unspecified) | > 40 µM (inactive)
O=C1c2ccccc2NC(c2ccc(Cl)cc2Cl)N1O (stereo unspecified) | > 40 µM (inactive)
O=C1C(C2=C(O)c3ccccc3C2=O)=Nc2ccccc21 | > 40 µM (inactive)
Cc1nc2c(=O)n(C)c(=O)n(C)c2nc1Cl | > 40 µM (inactive)
CCn1c(=O)c2ccccc2n2c(SCC(=O)N3CCCc4ccccc43)nnc12 | > 40 µM (inactive)
CCOC(=O)C(=Cc1ccc(F)cc1)C(=O)OCC | > 40 µM (inactive)
CC1CCc2cc(F)cc3c(O)c(C(=O)NCc4ccco4)c(=O)n1c23 (stereo unspecified) | > 40 µM (inactive)
COc1cc(C(C[N+](=O)[O-])c2c(-c3ccccc3)cc3ccccn23)cc(OC)c1OC (stereo unspecified) | > 40 µM (inactive)
CCOc1ccc2nc(NCCNC(=O)Nc3ccccc3)c(C#N)cc2c1 | > 40 µM (inactive)
Cc1nc(SC(C)C)[nH]c(=O)c1Cc1ccccc1 | > 40 µM (inactive)
O=C(c1ccccc1)c1nc2ccccc2[nH]c1=O | > 40 µM (inactive)
CCN1C(=O)/C(=C/N(C(C)=O)c2ccccc2)N(c2ccccc2)C1=S | > 40 µM (inactive)
CCOC(=O)c1nnn(-c2nonc2N)c1CN1CCc2ccccc2C1 | > 40 µM (inactive)
O=C(O)Cc1ccc(N=Cc2c(O)ccc3ccccc23)cc1 | > 40 µM (inactive)
CCc1[nH]nc2c1C(c1ccc(Br)s1)C(C#N)=C(N)O2 (stereo unspecified) | > 40 µM (inactive)
CC[n+]1ccc(C[n+]2ccccc2)c2ccccc21 | > 40 µM (inactive)
CCCCC(c1nnnn1CC1CCCO1)N1CCN(c2nc3ccccc3s2)CC1 (stereo unspecified) | > 40 µM (inactive)
O=C(Cn1nc(Cl)nc1Cl)c1cc2ccccc2oc1=O | > 40 µM (inactive)
CCc1ccc(C(=O)CN2C(=O)NC(C)(CCc3ccccc3)C2=O)cc1 (stereo unspecified) | > 40 µM (inactive)
C/C(=N\NC(=O)c1ccccc1O)C1C(=O)c2ccccc2C1=O | > 40 µM (inactive)
COc1ccc(NC(=S)N2CCN(CCN=CC3=C(O)CC(c4ccccc4)CC3=O)CC2)cc1 (stereo unspecified) | > 40 µM (inactive)
Cc1cc(N=Cc2c(O)ccc3ccccc23)no1 | > 40 µM (inactive)
CCC(=NCCc1c(C)[nH]c2ccc(C)cc12)C1=C(O)CC(c2ccccc2)CC1=O (stereo unspecified) | > 40 µM (inactive)
N#Cc1cc(C(=O)c2cc(F)ccc2O)cn(-c2nccs2)c1=O | > 40 µM (inactive)
COc1ccc(/C=C(\C#N)C(=O)N2CCOCC2)cc1Br | > 40 µM (inactive)

Structure (SMILES) | EC50
O=C(NC(=S)Nc1nc2c(s1)CSc1ccccc1-2)c1ccccc1 | > 40 µM (inactive)
COc1ccccc1-c1c(C)oc2cc(OC(=O)c3ccco3)ccc2c1=O | > 40 µM (inactive)
CC(C)C(c1nnnn1Cc1ccccc1)N1CCN(Cc2ccc3c(c2)OCO3)CC1 (stereo unspecified) | > 40 µM (inactive)
CN1C(=O)NC(c2ccc(O)cc2)C(C(=O)c2cccs2)C1(O)C(F)(F)F (stereo unspecified) | > 40 µM (inactive)
CSC1=NSC2=NC(=O)/C(=C\c3cccs3)C(=N)N12 | > 40 µM (inactive)
CCCCCSc1nc2c(c(=O)[nH]c(=O)n2C)n1C | > 40 µM (inactive)
CC1(C)CC(=O)C2=C(C1)OC1=C(C(=O)CC(C)(C)C1)C2c1ccc(O)cc1O | > 40 µM (inactive)
O=C(CCl)N1c2ccccc2OCC1c1ccccc1 (stereo unspecified) | > 40 µM (inactive)
c1ccc(-c2cc(N3CCOCC3)nc3ccccc23)cc1 | > 40 µM (inactive)
COc1ccc(CNC(=O)C2CCN(c3nc(OC)nc(OC)n3)CC2)cc1 | > 40 µM (inactive)
CCc1nnc(NC(=O)c2cccc(S(=O)(=O)N(C)c3ccccc3)c2)s1 | > 40 µM (inactive)
CCOC(=O)CS(=O)(=O)c1nc(-c2ccc(F)cc2)cc(C(F)(F)F)n1 | > 40 µM (inactive)
CN(Cc1c(O)ccc2c1oc(=O)c1ccccc12)C1CCCCC1 | > 40 µM (inactive)
COc1c(Br)cc(Br)cc1/C=N/n1c(C)nnc1C | > 40 µM (inactive)
c1cncc(-c2nn[nH]n2)c1 | > 40 µM (inactive)
CCCCn1c(NS(=O)(=O)c2ccc(C)cc2)c(C(=O)OCC)c2nc3ccccc3nc21 | > 40 µM (inactive)
O=C(O)c1cccc2c1C(=O)N(C1CCCCC1)C2 | > 40 µM (inactive)
O=C(Oc1ccc2c(c1)OCO2)C12CC3CC(CC(C3)C1)C2 | > 40 µM (inactive)
CCOc1ccc(OCC(=O)c2c(O)c3ccccc3oc2=O)cc1 | > 40 µM (inactive)
O=C(Oc1cc(=O)n2ccccc2n1)c1ccccc1 | > 40 µM (inactive)
CCCn1c(SCC(=O)c2ccc3c(c2)NC(=O)CO3)nc2ccccc21 | > 40 µM (inactive)
COCCn1c(SCC(=O)Nc2ccc(C)cc2)nc2c(oc3ccccc32)c1=O | > 40 µM (inactive)
Cn1c(=O)c2c(nc(Br)n2Cc2ccc3ccccc3c2)n(C)c1=O | > 40 µM (inactive)
